In ChEMBL document CHEMBL4725344, “Development of Highly Potent Carbazole Amphiphiles as Membrane-Targeting Antimicrobials for Treating Gram-Positive Bacterial Infections” (J Med Chem, 2020):
In brackets after ≈: the same amount, converted by molar mass. Activity calls are given as the source filed them. The rule behind the calls is not given here.

Legend:
Staphylococcus aureus [1] = experiment: Antibacterial activity against Staphylococcus aureus ATCC 29213 measured after 24 hrs by microplate reader analysis; type: functional
Staphylococcus aureus [2] = experiment: Antibacterial activity against methicillin-resistant Staphylococcus aureus N315 measured after 24 hrs by microplate reader analysis; type: functional
Staphylococcus aureus [3] = experiment: Antibacterial activity against methicillin-resistant Staphylococcus aureus NCTC 10442 measured after 24 hrs by microplate reader analysis; type: functional
[4] = Hemolytic activity in rabbit erythrocytes measured after 1 hr by microplate reader analysis; type: ADME, cell-based, Oryctolagus cuniculus, Erythrocyte
[5] = Selectivity index, ratio of HC50 for rabbit erythrocytes to MIC for Staphylococcus aureus ATCC 29213; type: toxicity; conditions: read-out: Selectivity Index
[6] = Selectivity index, ratio of HC50 for rabbit erythrocytes to MIC for methicillin-resistant Staphylococcus aureus N315; type: toxicity; conditions: read-out: Selectivity Index
[7] = Selectivity index, ratio of HC50 for rabbit erythrocytes to MIC for methicillin-resistant Staphylococcus aureus NCTC 10442; type: toxicity; conditions: read-out: Selectivity Index
[8] = Hemolytic activity in rabbit erythrocytes assessed as hemolysis at 200 ug/ml measured after 1 hr by microplate reader analysis relative to control; type: ADME, cell-based, Oryctolagus cuniculus, Erythrocyte; conditions: at 200 µg/mL, read-out: Activity
Staphylococcus aureus [9] = experiment: Bactericidal activity against Staphylococcus aureus ATCC 29213 assessed as log reduction in bacterial count at 8 times MIC preincubated for 1 hr followed by replating on MHA medium measured after 24 hrs by time kill assay; type: functional; conditions: time 25 hrs
Staphylococcus aureus [10] = experiment: Bactericidal activity against Staphylococcus aureus ATCC 29213 assessed as log reduction in bacterial count at 4 times MIC preincubated for 4 hrs followed by replating on MHA medium measured after 24 hrs by time kill assay; type: functional; conditions: time 28 hrs
Staphylococcus aureus [11] = experiment: Antibacterial activity against Staphylococcus aureus ATCC 29213 at 0.5 times MIC passaged daily for 21 days; type: functional, organism-based; conditions: time 21.0 day
Cell membrane [12] = experiment: Induction of inner membrane permeabilization in Staphylococcus aureus ATCC 29213 measured for 1 hr by SYTOX green dye based fluorescence assay; type: subcellular
Cell membrane [13] = experiment: Induction of inner membrane permeabilization in methicillin-resistant Staphylococcus aureus NCTC 10442 measured for 1 hr by SYTOX green dye based fluorescence assay; type: subcellular
Cell membrane [14] = experiment: Disruption of cell membrane integrity in Staphylococcus aureus ATCC 29213 assessed as increase in red fluorescence at 8 times MIC measured after 2 hrs by Syto9/propidium iodide Live/dead staining based laser confocal microscopic analysis; type: subcellular
Cell membrane [15] = experiment: Induction of cell membrane damage in Staphylococcus aureus ATCC 29213 assessed as wrinkle formation at 8 times MIC measured after 2 hrs by SEM analysis; type: subcellular
Cell membrane [16] = experiment: Induction of cell membrane damage in Staphylococcus aureus ATCC 29213 assessed as membrane perforation at 8 times MIC measured after 2 hrs by SEM analysis
Cell membrane [17] = experiment: Induction of cell membrane damage in Staphylococcus aureus ATCC 29213 assessed as membrane perforation at 8 times MIC measured after 2 hrs by TEM analysis
Staphylococcus aureus [18] = experiment: Antibacterial activity against Staphylococcus aureus ATCC 29213 measured after 24 hrs in presence of LTA by microplate reader analysis; type: functional
Staphylococcus aureus [19] = experiment: Antibacterial activity against methicillin-resistant Staphylococcus aureus NCTC 10442 measured after 24 hrs in presence of LTA by microplate reader analysis; type: functional
Bacillus subtilis [20] = experiment: Displacement of BODIPYTM-TR-cadaverine from Bacillus subtilis LTA at MIC measured after 30 mins by fluorescence assay relative to control
Bacillus subtilis [21] = experiment: Displacement of BODIPYTM-TR-cadaverine from Bacillus subtilis LTA at 2 times MIC measured after 30 mins by fluorescence assay relative to control
Bacillus subtilis [22] = experiment: Displacement of BODIPYTM-TR-cadaverine from Bacillus subtilis LTA at 4 times MIC measured after 30 mins by fluorescence assay relative to control
Bacillus subtilis [23] = experiment: Displacement of BODIPYTM-TR-cadaverine from Bacillus subtilis LTA at 8 times MIC measured after 30 mins by fluorescence assay relative to control
[24] = Cytotoxicity against mouse corneal epithelial cells assessed as cell viability at […] ug/ml measured after 24 hrs by CCK8 assay relative to control; type: cell-based; conditions: dose 1.56 µg/ml, read-out: Activity
[25] = Cytotoxicity against mouse corneal epithelial cells assessed as cell viability at 3.125 ug/ml measured after 24 hrs by CCK8 assay relative to control; type: cell-based; conditions: at 3.125 µg/mL, read-out: Activity
[26] = Cytotoxicity against mouse corneal epithelial cells assessed as cell viability at 6.25 ug/ml measured after 24 hrs by CCK8 assay relative to control; type: cell-based; conditions: at 6.25 µg/mL, read-out: Activity
[27] = Cytotoxicity against mouse corneal epithelial cells assessed as cell viability at 12.5 ug/ml measured after 24 hrs by CCK8 assay relative to control; type: cell-based; conditions: at 12.5 µg/mL, read-out: Activity
[28] = Cytotoxicity against mouse corneal epithelial cells assessed as cell viability […] measured after 24 hrs by CCK8 assay relative to control; type: cell-based; conditions: dose 25 µg/ml, read-out: Activity
[29] = Cytotoxicity against mouse corneal epithelial cells assessed as cell viability at 50 ug/ml measured after 24 hrs by CCK8 assay relative to control; type: cell-based; conditions: at 50 µg/mL, read-out: Activity
[30] = Cytotoxicity against mouse corneal epithelial cells assessed as cell viability at 100 ug/ml measured after 24 hrs by CCK8 assay relative to control; type: cell-based; conditions: at 100 µg/mL, read-out: Activity
[31] = Cytotoxicity against mouse J774.A1 cells assessed as cell viability at […] ug/ml measured after 24 hrs by CCK8 assay relative to control; type: cell-based; conditions: dose 1.56 µg/ml, read-out: Activity
[32] = Cytotoxicity against mouse J774.A1 cells assessed as cell viability at 3.125 ug/ml measured after 24 hrs by CCK8 assay relative to control; type: cell-based; conditions: at 3.125 µg/mL, read-out: Activity
[33] = Cytotoxicity against mouse J774.A1 cells assessed as cell viability at 6.25 ug/ml measured after 24 hrs by CCK8 assay relative to control; type: cell-based; conditions: at 6.25 µg/mL, read-out: Activity
[34] = Cytotoxicity against mouse J774.A1 cells assessed as cell viability at 12.5 ug/ml measured after 24 hrs by CCK8 assay relative to control; type: cell-based; conditions: at 12.5 µg/mL, read-out: Activity
[35] = Cytotoxicity against mouse J774.A1 cells assessed as cell viability at 25 ug/ml measured after 24 hrs by CCK8 assay relative to control; type: cell-based; conditions: at 25 µg/mL, read-out: Activity
[36] = Cytotoxicity against mouse J774.A1 cells assessed as cell viability at 50 ug/ml measured after 24 hrs by CCK8 assay relative to control; type: cell-based; conditions: at 50 µg/mL, read-out: Activity
[37] = Cytotoxicity against mouse J774.A1 cells assessed as cell viability at 100 ug/ml measured after 24 hrs by CCK8 assay relative to control; type: cell-based; conditions: at 100 µg/mL, read-out: Activity
[38] = Cytotoxicity against mouse corneal epithelial cells assessed as reduction in cell viability measured after 24 hrs by CCK8 assay; type: cell-based
[39] = Cytotoxicity against mouse J774.A1 cells assessed as reduction in cell viability measured after 24 hrs by CCK8 assay; type: cell-based
Staphylococcus aureus [40] = experiment: (§1) Antibacterial activity against Staphylococcus aureus ATCC 29213 infected in cyclophosphamide-immunosuppressed C57BL6 mouse cornea assessed as log reduction in corneal bacterial count at 0.5% administered as topical solution for 4 times per day for 3 days and measured post-last dose by standard plate counting method; type: functional; conditions: time 3 day
[41] = Toxicity in C57BL6 mouse assessed as corneal damage at 0.5% administered as topical solution for 4 times per day for 3 days and measured post-last dose by fluorescein sodium staining based slit-lamp biomicroscopic method; conditions: in vivo, topical_or_ocular, 72 h, time 3 day
Staphylococcus aureus [42] = experiment: Bactericidal activity against Staphylococcus aureus ATCC 29213 assessed as log reduction in bacterial count at 8 times MIC preincubated for 4 hrs followed by replating on MHA medium measured after 24 hrs by time kill assay; type: functional; conditions: time 28 hrs
Staphylococcus aureus [43] = experiment: as §1, with “5%” for “0.5%”; type: functional; conditions: time 3 day

Work on `CC(C)=CCn1c2ccccc2c2c(OCC(O)CNC(=N)N)cccc21` (centres undefined) yielded an MIC (Staphylococcus aureus [1]) of 1.56 µg/mL (≈ 4.26 µM), an MIC (Staphylococcus aureus [2]) of 0.78 µg/mL (≈ 2.13 µM) and an MIC (Staphylococcus aureus [3]) of 1.56 µg/mL (≈ 4.26 µM). It also gave an HC50 at 1 h [4] greater than 200 µg/mL, a selectivity ratio [5] greater than 128 and a selectivity ratio [6] greater than 128. For the same compound, the selectivity ratio [7] was greater than 128, the hemolysis at 1 h, 200 ug/ml [8] was 3.5% and the “log(activity)” value (Staphylococcus aureus [9]) was 3.21. The “log(activity)” value (Staphylococcus aureus [10]) was 3.45, the Activity (Staphylococcus aureus [11]) was “Active” and the Activity (Cell membrane [12]) was “Dose-dependent effect”. For the same compound, the Activity (Cell membrane [13]) was “Dose-dependent effect”, the Activity (Cell membrane [14]) was “Active” and the Activity (Cell membrane [15]) was “Active”. The Activity (Cell membrane [16]) was “Active”, the Activity (Cell membrane [17]) was “Active” and the MIC (Staphylococcus aureus [18]) was 1.56 µg/mL. It also gave an MIC (Staphylococcus aureus [19]) of 1.56 µg/mL, an inhibition (Bacillus subtilis [20]) of 12.9% and an inhibition (Bacillus subtilis [21]) of 22.3%. For the same compound, the inhibition (Bacillus subtilis [22]) was 28.8%, the inhibition (Bacillus subtilis [23]) was 35.8% and the viability at 24 h, 1.56 ug/ml [24] was 88.3%. For the same compound, the viability at 24 h, 3.125 ug/ml [25] was 87.9%, the viability at 24 h, 6.25 ug/ml [26] was 85.3% and the viability at 24 h, 12.5 ug/ml [27] was 75.1%. The viability at 24 h [28] was 34.1%, the viability at 24 h, 50 ug/ml [29] was 8.52% and the viability at 24 h, 100 ug/ml [30] was 6.65%. The viability at 24 h, 1.56 ug/ml [31] was 96.3%, the viability at 24 h, 3.125 ug/ml [32] was 95% and the viability at 24 h, 6.25 ug/ml [33] was 86.2%. The viability at 24 h, 12.5 ug/ml [34] was 80.5%, the viability at 24 h, 25 ug/ml [35] was 78.2% and the viability at 24 h, 50 ug/ml [36] was 28.1%. It also gave a viability at 24 h, 100 ug/ml [37] of 20.5%, a CC50 at 24 h [38] of 23.8 µg/mL (≈ 65 µM) and a CC50 at 24 h [39] of 37.2 µg/mL (≈ 102 µM). The “log(activity)” value (Staphylococcus aureus [40]) was 4.17 and the Activity [41] was “Non-Toxic”.
`CN[C@H](CC(C)C)C(=O)N[C@H]1C(=O)N[C@@H](CC(N)=O)C(=O)N[C@H]2C(=O)N[C@H]3C(=O)N[C@H](C(=O)N[C@H](C(=O)O)c4cc(O)cc(O)c4-c4cc3ccc4O)[C@H](O)c3ccc(c(Cl)c3)Oc3cc2cc(c3O[C@@H]2O[C@H](CO)[C@@H](O)[C@H](O)[C@H]2O[C@H]2C[C@](C)(N)[C@H](O)[C@H](C)O2)Oc2ccc(cc2Cl)[C@H]1O` [VANCOMYCIN] gave an MIC (Staphylococcus aureus [1]) of 0.78 µg/mL (≈ 0.538 µM), an MIC (Staphylococcus aureus [2]) of 1.56 µg/mL (≈ 1.08 µM) and an MIC (Staphylococcus aureus [3]) of 1.56 µg/mL (≈ 1.08 µM). The “log(activity)” value (Staphylococcus aureus [10]) was 0.71, the “log(activity)” value (Staphylococcus aureus [42]) was 1.45 and the viability at 24 h, 1.56 ug/ml [31] was 101%. The viability at 24 h, 3.125 ug/ml [32] was 99.8%, the viability at 24 h, 6.25 ug/ml [33] was 99.5% and the viability at 24 h, 12.5 ug/ml [34] was 98.2%. It also gave a viability at 24 h, 25 ug/ml [35] of 92%, a viability at 24 h, 50 ug/ml [36] of 91% and a viability at 24 h, 100 ug/ml [37] of 89.9%. The “log(activity)” value (Staphylococcus aureus [43]) was 3.99.
